Test results: patent US9073918B2, “Pyrazolo[4,3-b]pyridine-7-amine inhibitors of ALK5” (Takeda Pharmaceutical Company Limited, priority 2010, dated 2015)

Columns and labels:
TGF-β R1 ALK5 = molecular target: T1, TGF-β R1 ALK5 (Homo sapiens, UniProt P36897); assay: In vitro inhibition of ALK5 (LanthaScreen activity assay, TR-FRET); format: biochemical
T1 construct: purchased Invitrogen PV5837
T1 sequence (P36897 34-503): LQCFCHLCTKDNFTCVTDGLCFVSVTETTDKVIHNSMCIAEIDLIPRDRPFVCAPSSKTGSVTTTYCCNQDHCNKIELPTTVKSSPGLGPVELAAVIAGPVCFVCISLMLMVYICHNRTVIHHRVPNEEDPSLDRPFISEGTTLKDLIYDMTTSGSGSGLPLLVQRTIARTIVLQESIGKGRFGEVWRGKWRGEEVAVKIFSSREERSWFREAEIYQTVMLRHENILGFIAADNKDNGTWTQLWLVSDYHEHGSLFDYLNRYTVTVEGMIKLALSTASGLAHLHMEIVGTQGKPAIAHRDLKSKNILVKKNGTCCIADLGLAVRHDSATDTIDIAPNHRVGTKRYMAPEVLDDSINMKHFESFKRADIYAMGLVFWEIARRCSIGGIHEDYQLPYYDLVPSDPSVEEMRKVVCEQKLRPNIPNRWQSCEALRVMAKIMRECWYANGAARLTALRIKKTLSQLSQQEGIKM
Method: Test compounds were screened for TGF-β R1 ALK5 inhibition by use of a LanthaScreen™ activity assay (PV5837 Invitrogen, Invitrogen Corp. Madison, Wis.).
In brief, the assay procedure was as follows:
Solutions of test compounds were prepared in DMSO and diluted two-fold serially.
Assays were incubated for 90 minutes at room temperature and then quenched by the addition of 60 mM EDTA and 8 nM Terbium labeled anti-pSMAD3 Antibody (M4337 from Invitrogen) giving a final concentration of 15 mM EDTA and 2 nM Terbium labeled anti-pSMAD3 Antibody. Phosphorylated peptide product was quantified by measuring an increase in TR-FRET on a BMG LABTECH PHERA star plus. Response is defined as the ratio of Channel A/Channel B. The response of a blank (uninhibited) using vehicle alone is also determined. Enzyme activity was defined as the response of uninhibited enzyme activity minus the response of assays containing no enzyme. The percent inhibition of ALK5 at a given compound concentration is defined as: 100%×[1−(response compound/response blank)]
where response compound is defined as the enzyme activity in the presence of test compound and response blank is defined as the uninhibited enzyme activity. The pIC50 value (negative log of the molar concentration of the compound that produces 50% inhibition) of a test compound is calculated by non-linear least squares curve fitting of the equation: Percent Inhibition=100%/(1+(10−pIC50/10 log [I])).
Where inhibition was measured in multiple experiments the value in Table 1 is an average. N.T. means not tested.

cellular TGF-β R1 ALK5 = molecular target: T2, cellular TGF-β R1 ALK5 (Homo sapiens, UniProt P36897); assay: Cellular inhibition of ALK5 (CellSensor SBE-bla HEK 293T beta-lactamase reporter); format: cell-based; conditions: cellular inhibition of ALK5, SBE-bla HEK 293T cells, TGFb-1 stimulated 5 hours; average where measured in multiple experiments
T2 construct: host or cells: CellSensor SBE-bla HEK 293T
T2 sequence (P36897 34-503): T1 sequence (P36897 34-503)
Excerpt: Test compounds were screened for cellular TGF-β R1 ALK5 inhibition by use of a CellSensor® SBE-bla HEK 293T (K1550, Invitrogen Corp. Madison, Wis.) cell line. The CellSensor® SBE-bla HEK 293T cell line contains a beta-lactamase reporter gene under control of the SBE response element stably integrated into HEK 293T cells. The SBE response element is a DNA region that binds activated SMADs which results from the binding of TGF-β to, and subsequent activation of ALK5.
The assay procedure was as follows:
CellSensor® SBE-bla HEK 293T cell line were plated at 12,000 cells/well in 40 ul DMEM plus 5 ug/ml blasticidin into 384-well, black-wall, clear-bottom assay plate and incubated overnight.
The following day 5 uL of 10×, 2.5-fold serially diluted test compounds in DMSO were added into cells to a final compound concentration of 1× and DMSO concentration of 0.5%. Assay was incubated for 1 hour at 37° C., 5% CO2, 5 uL of 100 ng/mL TGFb-1 was then added to activate ALK5 and incubated for 5 hours at 37° C., 5% CO2, 10 uL of detector, LiveBLAzer FRET B/G substrate (CCF4-AM, Invitrogen Corp. Madison, Wis.) was added to cells and incubated for 2 hours at RT. Assay was measured using Spectramax, a bottom-read fluorescence plate reader, at excitation setting of 405 nm and emission settings of 460 nm and 530 nm.
Response is defined as the ratio of background corrected 460 nm emission values/background corrected 530 nm emission values. Cellular activity was defined as percent inhibition of uninhibited ALK5 activity (wells treated with DMSO+TGF-β). The percent inhibition of cellular ALK5 at a given compound concentration is defined as: 100%×[1−(response compound+TGF-β/response DMSO+TGF-β)] where response compound+TGF-β is defined as the activity in the presence of test compound and response DMSO+TGF-β is defined as the uninhibited cellular ALK5 activity. The pIC50 value (negative log of the molar concentration of the compound that produces 50% inhibition) of a test compound is calculated by non-linear least squares curve fitting. pIC50 values, the negative of the log of the IC50, are calculated by non-linear curve fitting of the compound concentrations and percent of inhibition to the standard pIC50 equation.
Where inhibition was measured in multiple experiments the value in Table 2 is an average. N.T. means not tested.

SMILES	IC50 (TGF-β R1 ALK5)	IC50 (cellular TGF-β R1 ALK5)
Fc1ccc(Cl)cc1-c1cc(Nc2ccnc3cn[nH]c23)ccn1 [Example 17, N-(2-(5-chloro-2-fluorophenyl)pyridin-4-yl)-1H-pyrazolo[4,3-b]pyridin-7-amine]	0.00501 µM	0.0501 µM
CCCn1cc2nccc(Nc3ccnc(-c4cc(Cl)ccc4F)c3)c2n1 [Example 19, N-(2-(5-chloro-2-fluorophenyl)pyridin-4-yl)-2-propyl-2H-pyrazolo[4,3-b]pyridin-7-amine]	0.0501 µM	0.398 µM
Fc1ccc(Cl)cc1-c1cc(Nc2ccnc3cnn(C4CCOCC4)c23)ccn1 [Example 21, N-(2-(5-chloro-2-fluorophenyl)pyridin-4-yl)-1-(tetrahydro-2H-pyran-4-yl)-1H-pyrazolo[4,3-b]pyridin-7-amine]	0.1 µM	0.794 µM
Fc1ccc(Cl)cc1-c1cc(Nc2ccnc3cn(CC4CCNCC4)nc23)ccn1 [Example 27, N-(2-(5-chloro-2-fluorophenyl)pyridin-4-yl)-2-(piperidin-4-ylmethyl)-2H-pyrazolo[4,3-b]pyridin-7-amine]	0.0631 µM	1 µM
CCNC(=O)N1CCC(Cn2cc3nccc(Nc4ccnc(-c5cc(Cl)ccc5F)c4)c3n2)CC1 [Example 28, 4-((7-(2-(5-chloro-2-fluorophenyl)pyridin-4-ylamino)-2H-pyrazolo[4,3-b]pyridin-2-yl)methyl)-N-ethylpiperidine-1-carboxamide]	2.51 µM	2.51 µM
CCNC(=O)n1ncc2nccc(Nc3ccnc(-c4cc(Cl)ccc4F)c3)c21 [Example 29, 7-(2-(5-chloro-2-fluorophenyl)pyridin-4-ylamino)-N-ethyl-1H-pyrazolo[4,3-b]pyridine-1-carboxamide]	0.1 µM	0.1 µM
COCCCn1cc2nccc(Nc3ccnc(-c4cc(Cl)ccc4F)c3)c2n1 [Example 34, N-(2-(5-chloro-2-fluorophenyl)pyridin-4-yl)-2-(3-methoxypropyl)-2H-pyrazolo[4,3-b]pyridin-7-amine]	0.398 µM	0.398 µM
Fc1ccc(Cl)cc1-c1cc(Nc2ccnc3cnn(CC4CC4)c23)ccn1 [Example 36, N-(2-(5-chloro-2-fluorophenyl)pyridin-4-yl)-1-(cyclopropylmethyl)-1H-pyrazolo[4,3-b]pyridin-7-amine]	0.631 µM	0.631 µM
Fc1ccc(Cl)cc1-c1cc(Nc2ccnc3cn(CC4CC4)nc23)ccn1 [Example 37, N-(2-(5-chloro-2-fluorophenyl)pyridin-4-yl)-2-(cyclopropylmethyl)-2H-pyrazolo[4,3-b]pyridin-7-amine]	0.0631 µM	0.398 µM
OC[C@@H](O)Cn1cc2nccc(Nc3ccnc(-c4cc(Cl)ccc4F)c3)c2n1 [Example 47, (S)-3-(7-(2-(5-chloro-2-fluorophenyl)pyridin-4-ylamino)-2H-pyrazolo[4,3-b]pyridin-2-yl)propane-1,2-diol]		0.398 µM

Next, values leading:

IC50 (TGF-β R1 ALK5)	IC50 (cellular TGF-β R1 ALK5)	SMILES
0.01 µM	0.0501 µM	Cc1cnc(-c2cc(Cl)ccc2F)nc1Nc1ccnc2cn[nH]c12 [Example 1, N-(2-(5-chloro-2-fluorophenyl)-5-methylpyrimidin-4-yl)-1H-pyrazolo[4,3-b]pyridin-7-amine]
0.00631 µM	0.0794 µM	CNC(=O)n1ncc2nccc(Nc3nc(-c4cc(Cl)ccc4F)ncc3C)c21 [Example 2, 7-(2-(5-chloro-2-fluorophenyl)-5-methylpyrimidin-4-ylamino)-N-methyl-1H-pyrazolo[4,3-b]pyridine-1-carboxamide]
0.0398 µM	0.2 µM	Cc1ccc(F)c(-c2cc(Nc3ccnc4cnn(C(C)C)c34)c(C)cn2)n1 [Example 5, N-(3′-fluoro-5,6′-dimethyl-2,2′-bipyridin-4-yl)-1-isopropyl-1H-pyrazolo[4,3-b]pyridin-7-amine]
0.00501 µM	0.0251 µM	Cc1cccc(-c2cc(Nc3ccnc4cn[nH]c34)c(C)cn2)n1 [Example 6, N-(5,6′-dimethyl-2,2′-bipyridin-4-yl)-1H-pyrazolo[4,3-b]pyridin-7-amine]
0.0158 µM	0.2 µM	Cc1ccc(F)c(-c2cc(Nc3ccnc4cn(C[C@H](O)CO)nc34)c(C)cn2)n1 [Example 7, (S)-3-(7-(3′-fluoro-5,6′-dimethyl-2,2′-bipyridin-4-ylamino)-2H-pyrazolo[4,3-b]pyridin-2-yl)propane-1,2-diol]
0.01 µM	0.02 µM	Cc1ccc(F)c(-c2cc(Nc3ccnc4cnn(CCO)c34)c(C)cn2)n1 [Example 10, 2-(7-(3′-fluoro-5,6′-dimethyl-2,2′-bipyridin-4-ylamino)-1H-pyrazolo[4,3-b]pyridin-1-yl)ethanol]
0.0316 µM	0.501 µM	COCCn1cc2ncc(F)c(Nc3cc(-c4cc(Cl)ccc4F)ncc3C)c2n1 [Example 16, N-(2-(5-chloro-2-fluorophenyl)-5-methylpyridin-4-yl)-6-fluoro-2-(2-methoxyethyl)-2H-pyrazolo[4,3-b]pyridin-7-amine]
0.0501 µM	0.631 µM	CCCn1ncc2nccc(Nc3ccnc(-c4cc(Cl)ccc4F)c3)c21 [Example 18, N-(2-(5-chloro-2-fluorophenyl)pyridin-4-yl)-1-propyl-1H-pyrazolo[4,3-b]pyridin-7-amine]
0.0398 µM	0.1 µM	CC(C)n1ncc2nccc(Nc3ccnc(-c4cc(Cl)ccc4F)c3)c21 [Example 20, N-(2-(5-chloro-2-fluorophenyl)pyridin-4-yl)-1-isopropyl-1H-pyrazolo[4,3-b]pyridin-7-amine]
0.2 µM	0.2 µM	CNC(=O)Cn1ncc2nccc(Nc3ccnc(-c4cc(Cl)ccc4F)c3)c21 [Example 31, 2-(7-(2-(5-chloro-2-fluorophenyl)pyridin-4-ylamino)-1H-pyrazolo[4,3-b]pyridin-1-yl)-N-methylacetamide]
0.0501 µM	0.0501 µM	CNC(=O)n1ncc2nccc(Nc3ccnc(-c4cc(Cl)ccc4F)c3)c21 [Example 32, 7-(2-(5-chloro-2-fluorophenyl)pyridin-4-ylamino)-N-methyl-1H-pyrazolo[4,3-b]pyridine-1-carboxamide]
0.2 µM	0.2 µM	COCCCn1ncc2nccc(Nc3ccnc(-c4cc(Cl)ccc4F)c3)c21 [Example 33, N-(2-(5-chloro-2-fluorophenyl)pyridin-4-yl)-1-(3-methoxypropyl)-1H-pyrazolo[4,3-b]pyridin-7-amine]
0.0398 µM		CNC(=O)Cn1ncc2nccc(Nc3cc(-c4cc(F)ccc4F)ncc3C)c21 [Example 159, 2-(7-(2-(2,5-difluorophenyl)-5-methylpyridin-4-ylamino)-1H-pyrazolo[4,3-b]pyridin-1-yl)-N-methylacetamide]
